Series [1] deals with PC-3 cell line. As to conditions: cited from earlier work.
For series [2], the system named is MCF-7. The following applies: comparison drugs, MCF-7 by context; no reference given; cited from earlier work.
The test system of the next series is HTB-54. Nature of the series: MTT cytotoxicity assay (NCI) in HTB-54. It counts as cell-based, human. As to conditions: for TGI HTB-54: dose that completely inhibits cell growth; for LD50 HTB-54: dose that kills 50% of cells; for GI50: Homo sapiens, read-out: GI50 HTB-54. On the procedure: (§1) In order to investigate the effect of the active compounds in more detail, we examined the activity on proliferation in other cancer cell lines. […] Tests were carried out in the Department of Health Science, Public University of Navarra against a panel of four human tumour cell lines: lung (HTB-54), colon (HT-29), leukaemia (CCRF-CEM) and breast adenocarcinoma (MCF-7). Cytotoxicity assays were performed based on the reactivity of MTT [3-(4,5-dimethylthiazol-2-yl)-2,5-diphenyl-tetrazolium bromide], as described by NCI [39]. […] Doxorubicin was used as a control. As guidance with regard to selectivity, all of the compounds were further examined for toxicity in a mammary gland cell culture derived from non-malignant cells (184B5). Drug concentrations ranged from 0.01 to 100 μM.
(§2) The cytotoxic effects of each substance were tested at five different doses between 0.01 and 100 μM. Each substance was initially dissolved in DMSO at a concentration of 0.1 M, and serial dilutions were prepared using culture medium. The plates with cells from the different lines, to which medium containing the substance under test were added, were incubated for 72 h at 37 °C in a humidified atmosphere containing 5% CO2. European Collection of Cell Cultures (ECACC) or American Type Culture Collection (ATCC) provided human tumour cell lines. Four cell lines were used: one human lymphocytic leukemia (CCRF-CEM) and three human solid tumours, one colon carcinoma (HT-29), one lung carcinoma (HTB-54) and one breast adenocarcinoma (MCF-7). CCRF-CEM, HT-29 and HTB-54 cells were grown in RPMI 1640 medium (Life Technologies, Carlsbad, CA, USA) supplemented with 10% foetal calf serum, 2 mM L-glutamine, 100 units/mL penicillin, 100 μg/mL streptomycin and 10 mM HEPES buffer (pH = 7.4). MCF-7 cells were grown in EMEM medium (Clonetics) supplemented with 10% foetal calf serum, 2 mM L-glutamine, 100 units/mL penicillin and 100 μg/mL streptomycin. 184B5 cells were grown Hams F-12/DMEM (50:50) supplemented as described by Li et al.. Cytotoxicity was then determined by the MTT method. […] Data were obtained from at least three independent experiments performed in quadruplicate.
(Formazan colour is commonly taken as a measure of viable cells.)

Series [3] relates to PC-3 cell line. Nature of the series: MTT cytotoxicity assay in PC-3. The following applies: Homo sapiens. On the procedure:
The results are tabulated as IC50 values. All experiments were independently performed at least three times and the values were calculated after 72 hours exposure (drug concentrations of 2, 5, 7 and 10 μM).
PC-3 cells were seeded in 96-well plates (Millipore, Eschborn, Germany) at a density of 5 × 10^3 cells per well. The samples were incubated at 37 °C under 5% CO2 overnight prior to the addition of the compounds. Compounds were diluted in complete medium. After 3 days of incubation, 10 μL MTT solution (5 mg/mL in PBS) was added to the cells in each well and these were stored for an additional 4 h at 37 °C. […] The percentage of viable cells was calculated to obtain IC50-values.
PC-3 are human tumorigenic and metastatic prostate cancer cells and these were obtained from American Type Culture Collection (ATCC, Manassas, VA, USA) (passage 36).

Another series has as its system HT-29. Kind of series: MTT cytotoxicity assay (NCI) in HT-29. It counts as cell-based, human. The following applies: for TGI HT-29: dose that completely inhibits cell growth; for LD50 HT-29: dose that kills 50% of cells; for GI50: Homo sapiens, read-out: GI50 HT-29. On the procedure: as §1, §2
The nature of series [4]: MTT toxicity assay in non-malignant mammary gland cells 184B5. As to conditions: human. It counts as cell-based. How it is done:
as §1, §2

The next series concerns 184B5. Described as above. It counts as cell-based. The following applies: for LD50 184B5 / TGI 184B5: 72 h; for LD50 184B5: dose that kills 50% of cells. On the procedure:
as §1, §2

The next series has as its system CCRF-CEM. Kind of series: MTT cytotoxicity assay (NCI) in CCRF-CEM. It counts as cell-based, human. As to conditions: 72 h; for TGI CCRF-CEM: dose that completely inhibits cell growth; for LD50 CCRF-CEM: dose that kills 50% of cells; for GI50: Homo sapiens, CCRF-CEM, read-out: GI50 CCRF-CEM. On the procedure: as §1, §2
For series [5], the system named is MCF-7. Kind of series: MTT cytotoxicity assay (NCI) in MCF-7. It counts as cell-based, human. As to conditions: for TGI MCF-7: dose that completely inhibits cell growth; for LD50 MCF-7: dose that kills 50% of cells; for GI50: Homo sapiens, read-out: GI50 MCF-7. On the procedure:
as §1, §2

Series [6] has as its system MCF-7 cells. Nature of the series: Cell cycle progression by flow cytometry. It counts as cell-based, human. The following applies: MCF-7, 25 μM, 48 hours. How it is done: Cell cycle arrest is one of the targets of many anticancer drugs, including doxorubicin and camptothecin. In an effort to ascertain whether compound 1 could affect cell cycle progression in MCF-7 cells, these cells were treated with 25 μM of the corresponding compound for 48 hours and cell cycle progression was determined by flow cytometry analysis.
(§3) For breast adenocarcinoma MCF-7 cells, the apoptotic status and cell cycle analysis of the cells were determined using the Apo-Direct kit (BD Pharmingen), based on the TUNEL technique, under the conditions described by the manufacturer.
In general terms: Flow cytometry measures light scatter and fluorescence of single cells or particles in a stream.

Series [7] concerns MCF-7 cells. Kind of series: Apoptosis, Apo-Direct kit (TUNEL). It counts as cell-based, human. As to conditions: MCF-7, 25 μM, 48 hours. How it is done:
The apoptotic status of the cells after 48 hours of treatment with 25 μM of the corresponding compound was determined using the Apo-Direct kit (BD Pharmingen) based on the TUNEL technique. Camptothecin was used as a positive control.
as §3

Setting [8] is: HTB-54, 72 h, dose that inhibits 50% of cell growth.
[9] abbreviates: PC-3, 72 h, read-out: IC50 PC-3 cell line.
The mark [10] stands for this setting: PC-3, read-out: IC50 (cytotoxic activity in PC-3 cell line).
The mark [11] stands for this setting: HT-29, 72 h, dose that inhibits 50% of cell growth.
Where [12] appears, read: dose that inhibits 50% of cell growth.
Where [13] appears, read: MCF7, 72 h, dose that inhibits 50% of cell growth.
Where [14] appears, read: listed as benzoylselenylacetic acid.

“Also recorded” adds a separate entry of the source. Read-outs that look alike come from different tables or passages of the source. Bounds are passed on as bounds.

For orientation: IC50 means the concentration that gives 50% inhibition. One may read the GI50 as the concentration giving 50% growth inhibition. The term TGI denotes the concentration at which net growth stops.

For `COc1cc([C@@H]2c3cc4c(cc3[C@@H](O[C@@H]3O[C@@H]5CO[C@@H](C)O[C@H]5[C@H](O)[C@H]3O)[C@H]3COC(=O)[C@H]23)OCO4)cc(OC)c1O` [Etoposide], in the series with PC-3 cell line [1] (etoposide control), the half-maximal inhibitory concentration (IC50) was 13.6 ± 2.2 µM.

On to `CC(=O)O[C@H]1C(=O)[C@@]2(C)[C@H]([C@H](OC(=O)c3ccccc3)[C@]3(O)C[C@H](OC(=O)[C@H](O)[C@@H](NC(=O)c4ccccc4)c4ccccc4)C(C)=C1C3(C)C)[C@]1(OC(C)=O)CO[C@@H]1C[C@@H]2O` [paclitaxel], for which, in the series with MCF-7 [2], the concentration for 50% growth inhibition (GI50) is 0.01 µM and the TGI was 20 ± 1.9 µM.

As for `COc1cc(OC)cc(C(=O)[Se]CC(=O)O)c1` [Compound 14, (3,5-dimethoxy-benzoylselenyl)acetic acid], in the series with HTB-54 (72 h), the “TGI HTB-54” value is above 100 µM. Besides, in the series on HTB-54 (72 h), the “LD50 HTB-54” value is above 100 µM. Moreover, the GI50 in the series on HTB-54 (setting [8]) was 16.8 µM; in the series on HT-29 (setting [11]) it was 5.99 µM; with CCRF-CEM (setting [12]), above 100 µM; in the series with MCF-7 [5] (setting [13]), 1.57 µM. For the same molecule, the IC50 with PC-3 cell line [3] (setting [9]) and in the series with PC-3 cell line [3] (setting [10]) was 4 µM throughout. The “TGI HT-29” value in the series on HT-29 (72 h) amounted to 47.42 µM. In addition, the “LD50 HT-29” value with HT-29 (72 h) is above 100 µM. For the same molecule, the 50% growth inhibitory concentration (GI50) at 72 h in [4] was 0.0009 µM. For the same molecule, the “LD50 184B5” value in the series on 184B5 (non-malignant cells) is 62.55 µM. Also, the “TGI 184B5” value with 184B5 (human) is 8.21 µM. Besides, in the series on CCRF-CEM, the “TGI CCRF-CEM” value was above 100 µM. Besides, in the series on CCRF-CEM, the “LD50 CCRF-CEM” value is above 100 µM. Moreover, the “TGI MCF-7” value with MCF-7 [5] (72 h) is 6.19 µM; in the series with MCF-7 [5] (72 h, listed as 3,5-dimethoxyphenyl), 4.18 µM. Besides, the “LD50 MCF-7” value with MCF-7 [5] (72 h) is 52.65 µM.

`O=C(O)C[Se]C(=O)Cc1ccccc1` [Compound 11, Phenylacetoylselenylacetic acid]: in the series with HTB-54 (72 h), the “TGI HTB-54” value was above 100 µM. Also, the “LD50 HTB-54” value with HTB-54 (72 h) is above 100 µM. Also, the GI50 is 11.1 µM with HTB-54 (setting [8]), 16.2 µM with HT-29 (setting [11]), above 100 µM with CCRF-CEM (setting [12]) and 0.006 µM in the series on MCF-7 [5] (setting [13]). For the same molecule, the IC50 in the series with PC-3 cell line [3] (setting [9]) and in the series on PC-3 cell line [3] (setting [10]) was 2.9 µM each time. Besides, the “TGI HT-29” value in the series on HT-29 (72 h) was determined as 72.19 µM. Moreover, in the series on HT-29 (72 h), the “LD50 HT-29” value was above 100 µM. Moreover, the GI50 at 72 h in series [4] turned out to be 1.05 µM. Moreover, in the series with 184B5 (non-malignant cells), the “LD50 184B5” value was determined as 72.34 µM. Also, the “TGI 184B5” value in the series on 184B5 (human) was 9.64 µM. The “TGI CCRF-CEM” value in the series with CCRF-CEM is above 100 µM. In addition, the “LD50 CCRF-CEM” value with CCRF-CEM was above 100 µM. Moreover, the “TGI MCF-7” value in the series on MCF-7 [5] (72 h) is 4.18 µM; with MCF-7 [5] (72 h, listed as benzyl) it was 6.19 µM. In the series with MCF-7 [5] (72 h), the “LD50 MCF-7” value was determined as 53.49 µM.

With `CCC1=C[C@@H]2CN(C1)Cc1c([nH]c3ccccc13)[C@@](C(=O)OC)(c1cc3c(cc1OC)N(C)[C@H]1[C@@](O)(C(=O)OC)[C@H](OC(C)=O)[C@]4(CC)C=CCN5CC[C@]31[C@@H]54)C2` [vinorelbine], in the series on MCF-7 [2], the GI50 was 5 ± 1.3 µM and the TGI is 100 ± 10.2 µM.

Take `O=C(O)C[Se]C(=O)c1ccccc1` [Compound 1, (Benzoylselenyl)acetic acid]: the “effect on cell cycle progression” value is “did not induce any specific phase arrest of the cell cycle” in the series with MCF-7 cells [6] and “nor did it perturb the cell cycle” with MCF-7 cells [6] (setting [14]). For the same molecule, the “TGI HTB-54” value with HTB-54 (72 h) is 42.47 µM. Moreover, the “LD50 HTB-54” value with HTB-54 (72 h) is above 100 µM. The GI50 is 0.58 µM in the series with HTB-54 (HTB-54, 72 h); 7.39 µM in the series with HT-29 (HT-29, 72 h); above 100 µM in the series on CCRF-CEM; 0.09 µM in the series on MCF-7 [5] (MCF7, 72 h). For the same molecule, the half-inhibitory concentration (IC50) in the series on PC-3 cell line [3] (setting [9]) and with PC-3 cell line [3] (setting [10]) was 6.8 µM each time. Besides, the “TGI HT-29” value in the series on HT-29 (72 h) came to 55.98 µM. For the same molecule, in the series with HT-29 (72 h), the “LD50 HT-29” value is above 100 µM. In addition, in series [4] (72 h, non-malignant cells, dose that inhibits 50% of cell growth, read-out: GI50 184B5), the GI50 at 72 h stood at 1.97 µM. In the series with 184B5 (non-malignant cells, dose that completely inhibits cell growth), the “TGI 184B5” value is 22.50 µM. In addition, the “LD50 184B5” value in the series on 184B5 (non-malignant cells) is 76.73 µM. In addition, in the series with 184B5 (LD50 in 184B5 divided by LD50 in MCF-7), the “selectivity index (184B5/MCF-7 LD50 ratio)” value came to 1.3. Further, the “TGI CCRF-CEM” value with CCRF-CEM was above 100 µM. In addition, the “LD50 CCRF-CEM” value with CCRF-CEM was above 100 µM. Besides, the values for the induction of apoptosis result in the series with MCF-7 cells [7] and in the series on MCF-7 cells [7] (setting [14]) were “induction of cell death was independent of the apoptotic process; also recorded: mechanism of action is independent of apoptosis” and “did not provoke apoptosis”, respectively. Also, the “TGI MCF-7” value with MCF-7 [5] (72 h) came to 3.69 µM. Moreover, in the series on MCF-7 [5] (72 h), the “LD50 MCF-7” value came out at 58.01 µM.

For the molecule `C[Se](=O)O` [MSA, methylseleninic acid], the concentration for half-maximal inhibition (IC50) in the series with PC-3 cell line [1] (methylseleninic acid control) is 8.38 µM.

The values are drawn from publication PMC6254723, “Synthesis and Pharmacological Screening of Several Aroyl and Heteroaroyl Selenylacetic Acid Derivatives as Cytotoxic and Antiproliferative Agents” (Molecules, 2009).
